Reference: patent US9932381B2, “Exendin-4 derivatives as selective glucagon receptor agonists” (priority 2014, dated 2018)
Non-standard residues stand in square brackets, D forms with d. Residues, ends and D or L forms follow the SMILES beside them. Ala(4-thiazolyl) = N[C@@H](Cc1cscn1)C(=O)O; 1Nal = N[C@@H](Cc1cccc2ccccc12)C(=O)O; Phg = N[C@H](C(=O)O)c1ccccc1; Nle = CCCC[C@H](N)C(=O)O

Columns and labels:
[1] = molecular target: T1, human GLP-1 receptor (hGLP-1 R) (Homo sapiens, UniProt P43220); assay: cAMP response (HTRF) of HEK-293 cells stably expressing human GLP-1 receptor; assay type: cell-based; details: Table 4
T1 construct: expressed in transfected cells; host or cells: HEK-293
Experimental: (§1) cAMP content of cells was determined using a kit from Cisbio Corp. (cat. no. 62AM4PEC) based on HTRF (Homogenous Time Resolved Fluorescence). For preparation, cells were split into T175 culture flasks and grown overnight to near confluency in medium (DMEM/10% FBS). Medium was then removed and cells washed with PBS lacking calcium and magnesium, followed by proteinase treatment with accutase (Sigma-Aldrich cat. no. A6964). Detached cells were washed and resuspended in assay buffer (1×HBSS; 20 mM HEPES, 0.1% BSA, 2 mM IBMX) and cellular density determined. They were then diluted to 400000 cells/ml and 25 μl-aliquots dispensed into the wells of 96-well plates. For measurement, 25 μl of test compound in assay buffer was added to the wells, followed by incubation for 30 minutes at room temperature. After addition of HTRF reagents diluted in lysis buffer (kit components), the plates were incubated for 1 hr, followed by measurement of the fluorescence ratio at 665/620 nm. In vitro potency of agonists was quantified by determining the concentrations that caused 50% activation of maximal response (EC50).

[2] = molecular target: T2, human glucagon receptor (hGLUC R) (Homo sapiens, UniProt P47871); assay: cAMP response (HTRF) of HEK-293 cells stably expressing human glucagon receptor; assay type: cell-based; details: Table 4; read-out: EC50 hGLUC R
T2 construct: expressed in transfected cells; host or cells: HEK-293
Experimental: as §1, with “temperature.” for “temperature. After addition of HTRF reagents diluted in lysis buffer (kit components), the plates were incubated for 1 hr, followed by measurement of the fluorescence ratio at 665/620 nm. In vitro potency of agonists was quantified by determining the concentrations that caused 50% activation of maximal response (EC50).”

T2 sequence (P47871 26-477): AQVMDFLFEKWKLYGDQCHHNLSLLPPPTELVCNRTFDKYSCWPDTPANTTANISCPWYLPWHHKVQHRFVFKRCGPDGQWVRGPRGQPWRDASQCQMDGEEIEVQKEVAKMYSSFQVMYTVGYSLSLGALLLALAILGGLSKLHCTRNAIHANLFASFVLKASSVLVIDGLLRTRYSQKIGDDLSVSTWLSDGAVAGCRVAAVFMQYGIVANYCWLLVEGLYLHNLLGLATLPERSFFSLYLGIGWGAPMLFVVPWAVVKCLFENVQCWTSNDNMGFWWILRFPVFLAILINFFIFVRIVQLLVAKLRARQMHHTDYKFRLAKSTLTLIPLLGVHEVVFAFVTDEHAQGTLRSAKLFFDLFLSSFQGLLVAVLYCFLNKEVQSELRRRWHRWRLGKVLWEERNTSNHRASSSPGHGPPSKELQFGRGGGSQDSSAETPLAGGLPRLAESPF
T1 sequence (P43220 24-463): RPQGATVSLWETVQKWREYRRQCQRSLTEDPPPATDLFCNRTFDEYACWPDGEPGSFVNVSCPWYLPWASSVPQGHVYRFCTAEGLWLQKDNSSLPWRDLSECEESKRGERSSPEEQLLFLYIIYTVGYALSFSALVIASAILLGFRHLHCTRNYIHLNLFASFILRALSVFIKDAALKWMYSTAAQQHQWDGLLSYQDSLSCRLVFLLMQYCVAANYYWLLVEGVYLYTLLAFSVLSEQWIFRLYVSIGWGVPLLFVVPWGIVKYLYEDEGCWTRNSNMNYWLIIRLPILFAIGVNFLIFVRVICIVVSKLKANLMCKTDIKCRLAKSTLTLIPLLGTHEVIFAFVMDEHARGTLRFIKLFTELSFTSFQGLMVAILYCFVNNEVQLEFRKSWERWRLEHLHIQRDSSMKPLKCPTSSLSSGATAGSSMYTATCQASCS

Compound: CC[C@H](C)[C@H](NC(=O)[C@H](Cc1ccccc1)NC(=O)[C@H](CCC(=O)O)NC(=O)[C@H](CCC(N)=O)NC(=O)[C@H](C)NC(=O)[C@H](CCCNC(=N)N)NC(=O)[C@H](CCCNC(=N)N)NC(=O)[C@H](CO)NC(=O)[C@H](CCC(=O)O)NC(=O)[C@H](CC(C)C)NC(=O)[C@H](CCC(N)=O)NC(=O)[C@H](CCCCN)NC(=O)[C@H](CO)NC(=O)[C@H](CC(C)C)NC(=O)[C@H](CC(=O)O)NC(=O)[C@H](CO)NC(=O)[C@@H](NC(=O)[C@H](Cc1ccccc1)NC(=O)[C@@H](NC(=O)CNC(=O)[C@H](CCC(N)=O)NC(=O)[C@H](CO)NC(=O)[C@@H](N)Cc1cscn1)[C@@H](C)O)[C@@H](C)O)C(=O)N[C@@H](CCC(=O)O)C(=O)N[C@@H](Cc1c[nH]c2ccccc12)C(=O)N[C@@H](CC(C)C)C(=O)N[C@@H](CC(C)C)C(=O)N[C@@H](C)C(=O)NCC(=O)NCC(=O)N1CCC[C@H]1C(=O)N[C@@H](CCC(=O)O)C(=O)N[C@@H](CO)C(=O)NCC(=O)N[C@@H](C)C(=O)N1CCC[C@H]1C(=O)N1CCC[C@H]1C(=O)N1CCC[C@H]1C(=O)N[C@@H](CO)C(=O)O [SEQ ID NO 4, Tza-SQGTFTSDLSKQLESRRAQEFIEWLLAGGPESGAPPPS-OH] (H-[Ala(4-thiazolyl)]SQGTFTSDLSKQLESRRAQEFIEWLLAGGPESGAPPPS-OH; N-terminus assumed)
- EC50 [1]: 3.3 nM

Compound: CC[C@H](C)[C@H](NC(=O)[C@H](Cc1ccccc1)NC(=O)[C@H](CCC(=O)O)NC(=O)[C@H](CCC(N)=O)NC(=O)[C@H](C)NC(=O)[C@H](CCCNC(=N)N)NC(=O)[C@H](CCCNC(=N)N)NC(=O)[C@H](CO)NC(=O)[C@H](CCC(=O)O)NC(=O)[C@H](CC(C)C)NC(=O)[C@H](CCC(N)=O)NC(=O)[C@H](CCCCN)NC(=O)[C@H](CO)NC(=O)[C@@H](NC(=O)[C@H](CC(=O)O)NC(=O)[C@H](CO)NC(=O)[C@@H](NC(=O)[C@H](Cc1ccccc1)NC(=O)[C@@H](NC(=O)CNC(=O)[C@H](CCC(N)=O)NC(=O)[C@H](CO)NC(=O)[C@@H](N)Cc1cscn1)[C@@H](C)O)[C@@H](C)O)C(C)C)C(=O)N[C@@H](CCC(=O)O)C(=O)N[C@@H](Cc1c[nH]c2ccccc12)C(=O)N[C@@H](CC(C)C)C(=O)N[C@@H](CC(C)C)C(=O)N[C@@H](C)C(=O)N[C@H](C(=O)NCC(=O)N1CCC[C@H]1C(=O)N[C@@H](CCC(=O)O)C(=O)N[C@@H](CO)C(=O)NCC(=O)N[C@@H](C)C(=O)N1CCC[C@H]1C(=O)N1CCC[C@H]1C(=O)N1CCC[C@H]1C(=O)N[C@@H](CO)C(=O)O)[C@@H](C)O [SEQ ID NO 7, Tza-SQGTFTSDVSKQLESRRAQEFIEWLLATGPESGAPPPS-OH] (H-[Ala(4-thiazolyl)]SQGTFTSDVSKQLESRRAQEFIEWLLATGPESGAPPPS-OH; N-terminus assumed)
- EC50 [2]: 0.0024 nM
- EC50 [1]: 4.19 nM

Compound: CC[C@H](C)[C@H](NC(=O)[C@H](Cc1ccccc1)NC(=O)[C@H](CCC(=O)O)NC(=O)[C@H](CCC(N)=O)NC(=O)[C@H](C)NC(=O)[C@H](CCCNC(=N)N)NC(=O)[C@H](CCCNC(=N)N)NC(=O)[C@H](CO)NC(=O)[C@H](CCC(=O)O)NC(=O)[C@H](CC(C)C)NC(=O)[C@H](CCC(N)=O)NC(=O)[C@H](CCCCN)NC(=O)[C@H](CO)NC(=O)[C@@H](NC(=O)[C@H](CC(=O)O)NC(=O)[C@H](CO)NC(=O)[C@@H](NC(=O)[C@H](Cc1ccccc1)NC(=O)[C@@H](NC(=O)CNC(=O)[C@H](CCC(N)=O)NC(=O)[C@H](CO)NC(=O)[C@@H](N)Cc1cscn1)[C@@H](C)O)[C@@H](C)O)[C@@H](C)CC)C(=O)N[C@@H](CCC(=O)O)C(=O)N[C@@H](Cc1c[nH]c2ccccc12)C(=O)N[C@@H](CC(C)C)C(=O)N[C@@H](CC(C)C)C(=O)N[C@@H](C)C(=O)N[C@H](C(=O)NCC(=O)N1CCC[C@H]1C(=O)N[C@@H](CCC(=O)O)C(=O)N[C@@H](CO)C(=O)NCC(=O)N[C@@H](C)C(=O)N1CCC[C@H]1C(=O)N1CCC[C@H]1C(=O)N1CCC[C@H]1C(=O)N[C@@H](CO)C(=O)O)[C@@H](C)O [SEQ ID NO 8, Tza-SQGTFTSDISKQLESRRAQEFIEWLLATGPESGAPPPS-OH]
- EC50 [2]: 0.0022 nM
- EC50 [1]: 5.8 nM

Compound: CC[C@H](C)[C@H](NC(=O)[C@H](Cc1ccccc1)NC(=O)[C@H](CCC(=O)O)NC(=O)[C@H](CCC(N)=O)NC(=O)[C@H](C)NC(=O)[C@H](CCCNC(=N)N)NC(=O)[C@H](CCCNC(=N)N)NC(=O)[C@H](CO)NC(=O)[C@H](CCC(=O)O)NC(=O)[C@H](CC(C)C)NC(=O)[C@H](CCC(N)=O)NC(=O)[C@H](CCCCN)NC(=O)[C@H](CO)NC(=O)[C@@H](NC(=O)[C@H](CC(=O)O)NC(=O)[C@H](CO)NC(=O)[C@@H](NC(=O)[C@H](Cc1ccccc1)NC(=O)[C@@H](NC(=O)CNC(=O)[C@H](CCC(N)=O)NC(=O)[C@H](CO)NC(=O)[C@@H](N)Cc1cscn1)[C@@H](C)O)[C@@H](C)O)c1ccccc1)C(=O)N[C@@H](CCC(=O)O)C(=O)N[C@@H](Cc1c[nH]c2ccccc12)C(=O)N[C@@H](CC(C)C)C(=O)N[C@@H](CC(C)C)C(=O)N[C@@H](C)C(=O)N[C@H](C(=O)NCC(=O)N1CCC[C@H]1C(=O)N[C@@H](CCC(=O)O)C(=O)N[C@@H](CO)C(=O)NCC(=O)N[C@@H](C)C(=O)N1CCC[C@H]1C(=O)N1CCC[C@H]1C(=O)N1CCC[C@H]1C(=O)N[C@@H](CO)C(=O)O)[C@@H](C)O [SEQ ID NO 10, Tza-S-Q-G-T-F-T-S-D-Phg-SKQLESRRAQEFIEWLLATGPESGAPPPS-OH] (H-[Ala(4-thiazolyl)]SQGTFTSD[Phg]SKQLESRRAQEFIEWLLATGPESGAPPPS-OH; N-terminus assumed)
- EC50 [2]: 0.006 nM
- EC50 [1]: 45 nM

Compound: CC[C@H](C)[C@H](NC(=O)[C@H](Cc1ccccc1)NC(=O)[C@H](CCC(=O)O)NC(=O)[C@H](CCC(N)=O)NC(=O)[C@H](C)NC(=O)[C@H](CCCNC(=N)N)NC(=O)[C@H](CCCNC(=N)N)NC(=O)[C@H](CO)NC(=O)[C@H](CCC(=O)O)NC(=O)[C@H](CC(C)C)NC(=O)[C@H](CCC(N)=O)NC(=O)[C@H](CCCCN)NC(=O)[C@H](CO)NC(=O)[C@H](Cc1cccc2ccccc12)NC(=O)[C@H](CC(=O)O)NC(=O)[C@H](CO)NC(=O)[C@@H](NC(=O)[C@H](Cc1ccccc1)NC(=O)[C@@H](NC(=O)CNC(=O)[C@H](CCC(N)=O)NC(=O)[C@H](CO)NC(=O)[C@@H](N)Cc1cscn1)[C@@H](C)O)[C@@H](C)O)C(=O)N[C@@H](CCC(=O)O)C(=O)N[C@@H](Cc1c[nH]c2ccccc12)C(=O)N[C@@H](CC(C)C)C(=O)N[C@@H](CC(C)C)C(=O)N[C@@H](C)C(=O)N[C@H](C(=O)NCC(=O)N1CCC[C@H]1C(=O)N[C@@H](CCC(=O)O)C(=O)N[C@@H](CO)C(=O)NCC(=O)N[C@@H](C)C(=O)N1CCC[C@H]1C(=O)N1CCC[C@H]1C(=O)N1CCC[C@H]1C(=O)N[C@@H](CO)C(=O)O)[C@@H](C)O [SEQ ID NO 11, Tza-S-Q-G-T-F-T-S-D-1Nal-SKQLESRRAQEFIEWLLATGPESGAPPPS-OH] (H-[Ala(4-thiazolyl)]SQGTFTSD[1Nal]SKQLESRRAQEFIEWLLATGPESGAPPPS-OH; N-terminus assumed)
- EC50 [1]: 11.7 nM

Compound: CCCC[C@H](NC(=O)[C@H](CCC(N)=O)NC(=O)[C@H](CCCCN)NC(=O)[C@H](CO)NC(=O)[C@H](CC(C)C)NC(=O)[C@H](CC(=O)O)NC(=O)[C@H](CO)NC(=O)[C@@H](NC(=O)[C@H](Cc1ccccc1)NC(=O)[C@@H](NC(=O)CNC(=O)[C@H](CCC(N)=O)NC(=O)[C@H](CO)NC(=O)[C@@H](N)Cc1cscn1)[C@@H](C)O)[C@@H](C)O)C(=O)N[C@@H](CCC(=O)O)C(=O)N[C@@H](CO)C(=O)N[C@@H](CCCNC(=N)N)C(=O)N[C@@H](CCCNC(=N)N)C(=O)N[C@@H](C)C(=O)N[C@@H](CCC(N)=O)C(=O)N[C@@H](CCC(=O)O)C(=O)N[C@@H](Cc1ccccc1)C(=O)N[C@H](C(=O)N[C@@H](CCC(=O)O)C(=O)N[C@@H](Cc1c[nH]c2ccccc12)C(=O)N[C@@H](CC(C)C)C(=O)N[C@@H](CC(C)C)C(=O)N[C@@H](C)C(=O)N[C@H](C(=O)NCC(=O)N1CCC[C@H]1C(=O)N[C@@H](CCC(=O)O)C(=O)N[C@@H](CO)C(=O)NCC(=O)N[C@@H](C)C(=O)N1CCC[C@H]1C(=O)N1CCC[C@H]1C(=O)N1CCC[C@H]1C(=O)N[C@@H](CO)C(=O)O)[C@@H](C)O)[C@@H](C)CC [SEQ ID NO 16, Tza-S-Q-G-T-F-T-S-D-L-S-K-Q-Nle-ESRRAQEFIEWLLATGPESGAPPPS-OH] (H-[Ala(4-thiazolyl)]SQGTFTSDLSKQ[Nle]ESRRAQEFIEWLLATGPESGAPPPS-OH; N-terminus assumed)
- EC50 [1]: 19.7 nM
